Experiments:
Assay in all cases: Radiolabeled ATP kinase assay, panel of 371 kinases (Table S6)
Type in all cases: biochemical
[1] = target: T1, panel of 371 human kinases (Homo sapiens, UniProt P46734); details: MEK3; 0.1 μM; 10 μM ATP; read-out: % Enzyme Activity (relative to DMSO controls)
T1 construct: purchased Reaction Biology Corp
Description: (§1) ; FIG. 38C). […]. Further targeted analyses, such as genetic knock-down or knock-out, may be warranted to parse the role of these additional kinases in our model of neurodegeneration.

[2] = target: T2, panel of 371 human kinases (Homo sapiens, UniProt P53667); details: LIMK1; 0.1 μM; 10 μM ATP; read-out: % Enzyme Activity (relative to DMSO controls)
T2 construct: purchased Reaction Biology Corp
T2 sequence (P53667 whole entry): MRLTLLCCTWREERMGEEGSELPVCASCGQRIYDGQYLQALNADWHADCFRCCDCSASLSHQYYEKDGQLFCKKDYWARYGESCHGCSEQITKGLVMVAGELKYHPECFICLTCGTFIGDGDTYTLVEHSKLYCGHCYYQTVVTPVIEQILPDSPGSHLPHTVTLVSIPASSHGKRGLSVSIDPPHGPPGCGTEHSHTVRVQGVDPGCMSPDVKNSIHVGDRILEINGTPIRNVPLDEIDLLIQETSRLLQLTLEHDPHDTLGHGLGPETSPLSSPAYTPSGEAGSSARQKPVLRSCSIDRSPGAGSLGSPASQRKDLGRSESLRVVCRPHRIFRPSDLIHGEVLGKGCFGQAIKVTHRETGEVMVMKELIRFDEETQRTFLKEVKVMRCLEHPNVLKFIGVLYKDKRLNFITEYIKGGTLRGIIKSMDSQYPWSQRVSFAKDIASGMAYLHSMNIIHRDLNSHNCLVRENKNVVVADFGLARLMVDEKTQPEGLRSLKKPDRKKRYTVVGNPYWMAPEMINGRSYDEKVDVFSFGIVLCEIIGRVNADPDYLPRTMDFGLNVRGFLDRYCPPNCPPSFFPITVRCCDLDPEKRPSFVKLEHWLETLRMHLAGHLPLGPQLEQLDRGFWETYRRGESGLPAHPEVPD
Description: as §1

[3] = target: T3, panel of 371 human kinases (Homo sapiens, UniProt P51956); details: NEK3; 0.1 μM; 10 μM ATP; read-out: % Enzyme Activity (relative to DMSO controls)
T3 construct: purchased Reaction Biology Corp
Description: as §1

[4] = target: T4, panel of 371 human kinases (Homo sapiens, UniProt Q7KZI7); details: MARK2/PAR-1Ba; 0.1 μM; 10 μM ATP; read-out: % Enzyme Activity (relative to DMSO controls)
T4 construct: purchased Reaction Biology Corp
Description: as §1

[5] = target: T5, panel of 371 human kinases (Homo sapiens, UniProt Q9NRM7); details: LATS2; 0.1 μM; 10 μM ATP; read-out: % Enzyme Activity (relative to DMSO controls)
T5 construct: purchased Reaction Biology Corp
Description: as §1

[6] = target: T6, panel of 371 human kinases (Homo sapiens, UniProt Q07002); details: CDK18/cyclin Y (PCTK3); 0.1 μM; 10 μM ATP; read-out: % Enzyme Activity (relative to DMSO controls)
T6 construct: purchased Reaction Biology Corp
Description: as §1

[7] = target: T7, panel of 371 human kinases (Homo sapiens, UniProt P41240); details: CSK; 0.1 μM; 10 μM ATP; read-out: % Enzyme Activity (relative to DMSO controls)
T7 construct: purchased Reaction Biology Corp
T7 sequence (P41240 whole entry): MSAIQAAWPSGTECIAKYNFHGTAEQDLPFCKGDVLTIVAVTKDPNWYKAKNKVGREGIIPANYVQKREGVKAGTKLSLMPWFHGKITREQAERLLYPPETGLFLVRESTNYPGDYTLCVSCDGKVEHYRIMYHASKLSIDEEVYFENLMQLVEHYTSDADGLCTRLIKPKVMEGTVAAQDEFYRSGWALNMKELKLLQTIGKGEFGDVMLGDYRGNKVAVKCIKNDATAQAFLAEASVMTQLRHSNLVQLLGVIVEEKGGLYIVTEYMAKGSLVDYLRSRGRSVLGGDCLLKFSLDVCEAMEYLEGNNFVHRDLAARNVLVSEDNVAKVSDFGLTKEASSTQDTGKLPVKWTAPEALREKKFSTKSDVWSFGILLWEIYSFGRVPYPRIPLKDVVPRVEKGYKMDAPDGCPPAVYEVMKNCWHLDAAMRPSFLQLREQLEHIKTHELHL
Description: as §1

[8] = target: T8, panel of 371 human kinases (Homo sapiens, UniProt P53671); details: LIMK2; 0.1 μM; 10 μM ATP; read-out: % Enzyme Activity (relative to DMSO controls)
T8 construct: purchased Reaction Biology Corp
Description: as §1

[9] = target: T9, panel of 371 human kinases (Homo sapiens, UniProt P36894); details: ALK1/BMPR1A; 0.1 μM; 10 μM ATP; read-out: % Enzyme Activity (relative to DMSO controls)
T9 construct: purchased Reaction Biology Corp
Description: as §1

[10] = target: T10, panel of 371 human kinases (Homo sapiens, UniProt P35916); details: FLT4/VEGFR3; 0.1 μM; 10 μM ATP; read-out: % Enzyme Activity (relative to DMSO controls)
T10 construct: purchased Reaction Biology Corp
Description: as §1

[11] = target: T11, panel of 371 human kinases (Homo sapiens, UniProt Q9UBS0); details: p70S6Kb/RPS6KB2; 0.1 μM; 10 μM ATP; read-out: % Enzyme Activity (relative to DMSO controls)
T11 construct: purchased Reaction Biology Corp
Description: as §1

[12] = target: T12, panel of 371 human kinases (Homo sapiens, UniProt Q9Y2U5); details: MEKK2; 0.1 μM; 10 μM ATP; read-out: % Enzyme Activity (relative to DMSO controls)
T12 construct: purchased Reaction Biology Corp
Description: as §1

[13] = target: T13, panel of 371 human kinases (Homo sapiens, UniProt Q15569); details: TESK1; 0.1 μM; 10 μM ATP; read-out: % Enzyme Activity (relative to DMSO controls)
T13 construct: purchased Reaction Biology Corp
Description: as §1

[14] = target: T14, panel of 371 human kinases (Homo sapiens, UniProt Q16584); details: for remaining activity at 0.1 µM: MLK3/MAP3K11, 10 μM ATP, read-out: % Enzyme Activity (relative to DMSO controls)
T14 construct: purchased Reaction Biology Corp
T14 sequence (Q16584 whole entry): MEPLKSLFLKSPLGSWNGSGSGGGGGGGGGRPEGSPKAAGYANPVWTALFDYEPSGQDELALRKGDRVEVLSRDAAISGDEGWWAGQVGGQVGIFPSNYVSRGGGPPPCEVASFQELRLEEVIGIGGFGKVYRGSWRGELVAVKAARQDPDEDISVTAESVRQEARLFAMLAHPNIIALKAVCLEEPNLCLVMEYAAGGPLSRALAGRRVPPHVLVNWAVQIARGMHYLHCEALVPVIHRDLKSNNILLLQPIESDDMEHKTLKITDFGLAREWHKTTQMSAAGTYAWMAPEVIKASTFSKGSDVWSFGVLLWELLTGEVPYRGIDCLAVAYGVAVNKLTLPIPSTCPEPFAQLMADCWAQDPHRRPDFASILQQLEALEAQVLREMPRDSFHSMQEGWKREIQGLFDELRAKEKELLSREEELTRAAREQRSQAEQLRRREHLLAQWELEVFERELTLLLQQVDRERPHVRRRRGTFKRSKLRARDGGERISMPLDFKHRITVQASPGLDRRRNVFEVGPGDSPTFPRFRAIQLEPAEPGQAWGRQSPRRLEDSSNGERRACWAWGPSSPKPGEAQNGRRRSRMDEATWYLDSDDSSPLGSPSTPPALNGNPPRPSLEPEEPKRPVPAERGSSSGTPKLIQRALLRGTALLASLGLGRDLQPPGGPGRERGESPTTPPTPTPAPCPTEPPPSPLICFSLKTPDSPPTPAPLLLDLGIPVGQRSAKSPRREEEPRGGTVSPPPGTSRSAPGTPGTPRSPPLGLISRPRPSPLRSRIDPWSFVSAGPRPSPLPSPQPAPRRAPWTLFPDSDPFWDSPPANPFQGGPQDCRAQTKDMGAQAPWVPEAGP
Description: as §1

[15] = target: T15, panel of 371 human kinases (Homo sapiens, UniProt Q13164); details: ERK5/MAPK7; 0.1 μM; 10 μM ATP; read-out: % Enzyme Activity (relative to DMSO controls)
T15 construct: purchased Reaction Biology Corp
T15 sequence (Q13164 whole entry): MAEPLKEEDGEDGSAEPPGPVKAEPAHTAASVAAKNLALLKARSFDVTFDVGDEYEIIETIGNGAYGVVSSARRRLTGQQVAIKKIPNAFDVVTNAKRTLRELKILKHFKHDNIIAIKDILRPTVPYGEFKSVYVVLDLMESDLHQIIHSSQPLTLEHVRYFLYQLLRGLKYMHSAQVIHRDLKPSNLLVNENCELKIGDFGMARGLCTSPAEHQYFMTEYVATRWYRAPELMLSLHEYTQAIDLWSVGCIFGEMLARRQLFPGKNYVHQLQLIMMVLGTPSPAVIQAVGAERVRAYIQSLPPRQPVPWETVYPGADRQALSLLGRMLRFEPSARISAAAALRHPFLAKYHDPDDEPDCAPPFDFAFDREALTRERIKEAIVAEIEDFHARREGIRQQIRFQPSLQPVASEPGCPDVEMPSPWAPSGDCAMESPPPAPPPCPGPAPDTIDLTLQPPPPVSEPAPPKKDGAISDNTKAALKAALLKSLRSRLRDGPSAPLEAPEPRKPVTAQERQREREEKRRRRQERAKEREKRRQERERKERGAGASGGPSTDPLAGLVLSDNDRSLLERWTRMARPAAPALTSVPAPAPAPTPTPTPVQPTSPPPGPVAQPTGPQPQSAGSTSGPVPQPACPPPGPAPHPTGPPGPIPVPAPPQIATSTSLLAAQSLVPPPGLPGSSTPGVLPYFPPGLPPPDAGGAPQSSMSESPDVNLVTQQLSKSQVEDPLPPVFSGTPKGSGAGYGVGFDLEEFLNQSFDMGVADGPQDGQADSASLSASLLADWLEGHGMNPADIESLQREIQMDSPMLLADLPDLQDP
Description: as §1

[16] = target: T16, panel of 371 human kinases (Homo sapiens, UniProt Q13233); details: MEKK1; 0.1 μM; 10 μM ATP; read-out: % Enzyme Activity (relative to DMSO controls)
T16 construct: purchased Reaction Biology Corp
T16 sequence (Q13233 whole entry): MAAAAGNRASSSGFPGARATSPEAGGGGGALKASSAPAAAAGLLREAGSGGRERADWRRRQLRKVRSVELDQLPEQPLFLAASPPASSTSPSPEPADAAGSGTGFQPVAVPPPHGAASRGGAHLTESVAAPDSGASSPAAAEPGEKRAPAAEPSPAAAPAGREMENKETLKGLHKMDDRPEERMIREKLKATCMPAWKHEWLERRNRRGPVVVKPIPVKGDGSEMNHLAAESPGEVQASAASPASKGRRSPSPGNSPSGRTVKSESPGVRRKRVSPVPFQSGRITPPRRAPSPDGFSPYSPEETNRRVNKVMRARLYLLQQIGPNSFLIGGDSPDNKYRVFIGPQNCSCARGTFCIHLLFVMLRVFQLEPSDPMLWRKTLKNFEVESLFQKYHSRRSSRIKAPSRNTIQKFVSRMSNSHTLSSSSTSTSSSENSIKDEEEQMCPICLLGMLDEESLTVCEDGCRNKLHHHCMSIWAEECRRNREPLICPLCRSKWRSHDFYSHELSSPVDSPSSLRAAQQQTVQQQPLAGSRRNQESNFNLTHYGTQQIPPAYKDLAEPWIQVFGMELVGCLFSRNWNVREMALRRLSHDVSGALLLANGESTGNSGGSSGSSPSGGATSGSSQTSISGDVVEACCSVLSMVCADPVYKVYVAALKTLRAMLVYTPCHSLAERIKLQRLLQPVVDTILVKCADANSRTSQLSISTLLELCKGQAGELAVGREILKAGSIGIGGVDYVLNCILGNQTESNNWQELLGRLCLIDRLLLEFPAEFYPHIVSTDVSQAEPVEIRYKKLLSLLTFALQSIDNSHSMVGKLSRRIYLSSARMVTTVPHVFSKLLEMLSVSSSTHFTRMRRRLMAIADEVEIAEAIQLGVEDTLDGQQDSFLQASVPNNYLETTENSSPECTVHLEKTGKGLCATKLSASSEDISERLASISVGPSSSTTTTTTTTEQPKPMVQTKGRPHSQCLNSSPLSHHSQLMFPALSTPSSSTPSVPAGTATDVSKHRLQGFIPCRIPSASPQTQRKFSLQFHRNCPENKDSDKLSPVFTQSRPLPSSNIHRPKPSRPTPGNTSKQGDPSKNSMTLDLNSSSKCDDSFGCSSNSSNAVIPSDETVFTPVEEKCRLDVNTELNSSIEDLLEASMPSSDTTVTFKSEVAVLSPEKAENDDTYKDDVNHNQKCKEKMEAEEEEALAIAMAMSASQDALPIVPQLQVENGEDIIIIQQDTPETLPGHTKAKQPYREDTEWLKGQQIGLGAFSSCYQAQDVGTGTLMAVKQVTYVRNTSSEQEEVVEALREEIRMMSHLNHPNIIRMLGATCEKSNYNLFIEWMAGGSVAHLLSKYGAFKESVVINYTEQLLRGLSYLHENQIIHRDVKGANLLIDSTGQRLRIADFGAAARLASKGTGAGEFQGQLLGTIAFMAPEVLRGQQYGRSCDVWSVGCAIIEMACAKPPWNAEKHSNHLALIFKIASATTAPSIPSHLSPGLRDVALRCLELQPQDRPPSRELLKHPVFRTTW
Description: as §1

[17] = target: T17, panel of 371 human kinases (Homo sapiens, UniProt Q9NWZ3); details: IRAK4; 0.1 μM; 10 μM ATP; read-out: % Enzyme Activity (relative to DMSO controls)
T17 construct: purchased Reaction Biology Corp
Description: as §1

[18] = target: T18, panel of 371 human kinases (Homo sapiens, UniProt P10721); details: c-Kit; 0.1 μM; 10 μM ATP; read-out: % Enzyme Activity (relative to DMSO controls)
T18 construct: purchased Reaction Biology Corp
Description: as §1

[19] = target: T19, panel of 371 human kinases (Homo sapiens, UniProt P48730); details: CK1d; 0.1 μM; 10 μM ATP; read-out: % Enzyme Activity (relative to DMSO controls)
T19 construct: purchased Reaction Biology Corp
Description: as §1

[20] = target: T20, panel of 371 human kinases (Homo sapiens, UniProt Q96L34); details: MARK4; 0.1 μM; 10 μM ATP; read-out: % Enzyme Activity (relative to DMSO controls)
T20 construct: purchased Reaction Biology Corp
T20 sequence (Q96L34 whole entry): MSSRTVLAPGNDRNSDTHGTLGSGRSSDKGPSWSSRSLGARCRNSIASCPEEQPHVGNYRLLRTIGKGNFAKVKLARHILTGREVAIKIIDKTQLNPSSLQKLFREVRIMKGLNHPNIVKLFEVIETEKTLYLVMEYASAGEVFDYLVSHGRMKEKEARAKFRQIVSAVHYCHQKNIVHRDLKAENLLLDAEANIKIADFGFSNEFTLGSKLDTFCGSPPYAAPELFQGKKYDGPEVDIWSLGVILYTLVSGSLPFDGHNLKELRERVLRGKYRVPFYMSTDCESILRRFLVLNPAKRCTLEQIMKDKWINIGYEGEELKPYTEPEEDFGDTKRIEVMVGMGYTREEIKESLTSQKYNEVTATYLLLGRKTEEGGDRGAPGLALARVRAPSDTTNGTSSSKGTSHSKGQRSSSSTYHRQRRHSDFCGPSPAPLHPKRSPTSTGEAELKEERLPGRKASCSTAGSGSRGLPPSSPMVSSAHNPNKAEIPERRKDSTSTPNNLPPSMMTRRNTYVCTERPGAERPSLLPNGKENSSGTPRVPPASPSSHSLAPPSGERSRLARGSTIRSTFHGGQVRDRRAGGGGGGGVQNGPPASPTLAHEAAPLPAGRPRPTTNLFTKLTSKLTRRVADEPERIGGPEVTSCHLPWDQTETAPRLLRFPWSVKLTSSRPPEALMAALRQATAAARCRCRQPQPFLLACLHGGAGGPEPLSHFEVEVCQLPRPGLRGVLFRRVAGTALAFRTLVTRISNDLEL
Description: as §1

[21] = target: T21, panel of 371 human kinases (Homo sapiens, UniProt Q6IQ55); details: TTBK2; 0.1 μM; 10 μM ATP; read-out: % Enzyme Activity (relative to DMSO controls)
T21 construct: purchased Reaction Biology Corp
Description: as §1

[22] = target: T22, panel of 371 human kinases (Homo sapiens, UniProt P12931); details: c-Src; 0.1 μM; 10 μM ATP; read-out: % Enzyme Activity (relative to DMSO controls)
T22 construct: purchased Reaction Biology Corp
Description: as §1

[23] = target: T23, panel of 371 human kinases (Homo sapiens, UniProt P51957); details: NEK4; 0.1 μM; 10 μM ATP; read-out: % Enzyme Activity (relative to DMSO controls)
T23 construct: purchased Reaction Biology Corp
Description: as §1

[24] = target: T24, panel of 371 human kinases (Homo sapiens, UniProt P07333); details: FMS; 0.1 μM; 10 μM ATP; read-out: % Enzyme Activity (relative to DMSO controls)
T24 construct: purchased Reaction Biology Corp
Description: as §1

| Structure (SMILES) | remaining activity at 0.1 µM [1] | remaining activity at 0.1 µM [2] | remaining activity at 0.1 µM [3] | remaining activity at 0.1 µM [4] | remaining activity at 0.1 µM [5] | remaining activity at 0.1 µM [6] | remaining activity at 0.1 µM [7] | remaining activity at 0.1 µM [8] | remaining activity at 0.1 µM [9] | remaining activity at 0.1 µM [10] | remaining activity at 0.1 µM [11] | remaining activity at 0.1 µM [12] | remaining activity at 0.1 µM [13] | remaining activity at 0.1 µM [14] | remaining activity at 0.1 µM [15] | remaining activity at 0.1 µM [16] | remaining activity at 0.1 µM [17] | remaining activity at 0.1 µM [18] | remaining activity at 0.1 µM [19] | remaining activity at 0.1 µM [20] | other results |
| --- | --- | --- | --- | --- | --- | --- | --- | --- | --- | --- | --- | --- | --- | --- | --- | --- | --- | --- | --- | --- | --- |
| OCCN1CCN(Cc2ccc(-c3cnc4[nH]cc(-c5cccc(Cl)c5)c4c3)cc2)CC1 [Compound 12k, 2-(4-(4-(3-(3-Chlorophenyl)-1H-pyrrolo[2,3-b]pyridin-5-yl)benzyl)piperazin-1-yl)ethan-1-ol] | 99.7% | 103% | 91.1% | 51.7% | 88.1% | 77.5% | 90.8% | 101% | 96.8% | 85.8% | 95% | 93.3% | 101% | 67% | 113% | 94% | 95.4% | 89.8% | 92.8% | 40% | remaining activity at 0.1 µM [21]: 103%; remaining activity at 0.1 µM [22]: 88.1%; remaining activity at 0.1 µM [23]: 87.4%; remaining activity at 0.1 µM [24]: 26.8% |
| CN1CCN(Cc2ccc(-c3cnc4[nH]cc(-c5ccc6[nH]ccc6c5)c4c3)cc2)CC1 [Compound 1, 3-(1H-Indol-5-yl)-5-(4-((4-methylpiperazin-1-yl)methyl)phenyl)-1H-pyrrolo[2,3-b]pyridine, reference compound] | 101% | 112% | 88.3% | 78% | 83.2% | 90.3% | 87.5% | 103% | 97% | 81.7% | 107% | 102% | 105% | 56.4% | 102% | 102% | 106% | 100% | 90% | 76% | remaining activity at 0.025 µM ([14]; 0.025 μM, read-out: MLK3 activity remaining): 56.4%; remaining activity at 0.1 µM [21]: 101%; remaining activity at 0.1 µM [22]: 86%; remaining activity at 0.1 µM [23]: 89.8%; remaining activity at 0.1 µM [24]: 85.4% |
